How the values were obtained:
SapB = biological target: T1, SapB (Homo sapiens, UniProt P07602); experiment: Fluorescence quenching titration of SapB with ligand (double logarithmic Stern-Volmer analysis); assay type: binding
T1 construct: made in house; host or cells: E. coli
T1 sequence (P07602 195-273 limits assumed): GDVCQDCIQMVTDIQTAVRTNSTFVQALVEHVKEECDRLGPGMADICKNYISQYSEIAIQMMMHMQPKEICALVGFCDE
Protocol: A2E and SapB were prepared and purified according to literature reports. To determine the A2E/protein binding stoichiometry, a fluorescence titration was carried out by incrementally adding small amounts of A2E to a solution of SapB (FIG. 2). […] A double logarithmic plot of
Fluorescence quenching measurements were performed on a Varian Cary Eclipse fluorimeter equipped with a QNW Peltier temperature controller. The experiments were conducted at 25.00±0.01° C. in 50 mM phosphate buffer, pH 5.50 or 7.40 using 278 nm excitation wavelength for sapB emission spectra at 325 nm (FIG. 2) or 444 nm excitation for A2E emission at 602 nm (FIG. 3) with excitation and emission monochromators bandwidth of 5 nm each. The fluorescence quenching data were analyzed using OriginLab software version 8.
The interaction of SapB (prepared as described above) with a variety of ligands was followed by monitoring the quenching of the fluorescence intensities of the protein's tyrosine residues upon binding (FIG. 12 Panels a-f).
For each ligand tested 40 μM SapB in 50 mM phosphate buffer at pH 5.5 was titrated with ligand and quenching was monitored at the fluorescence maxima at 330 nm. […] All of the fluorescence data were analyzed by a double logarithmic Stern-Volmer plot, shown for all ligands, using the emission maxima to determine binding affinity, presented in Table 3, and using the following equation
Materials and Methods—Saposin B (SapB) was prepared and purified as described above. Briefly, SapB solutions in this study were prepared in 50 mM phosphate buffer, pH 5.5. […] Ligand solutions were prepared in 100% dimethylformamide (DMF) to a concentration of 2 mM, with the exception of hydoxychloroquine (HCQ), which was prepared in 50 mM phosphate buffer, pH 5.5. […] 4.2. Fluorescence Spectroscopy. Fluorescence quenching measurements were performed on a Varian Cary Eclipse fluorimeter equipped with a QNW Peltier temperature controller. The binding experiments were conducted at 25.00±0.01° C. in 50 mM phosphate buffer, pH 5.5, using 278 nm excitation wavelength for SapB emission spectra at 330 nm (FIG. 1a-f) with excitation and emission monochromators bandwidth of 5 nm each. Temperature sensitive binding experiments were performed between 20.00±0.01 and 40.00±0.01° C. using 278 nm excitation wavelength for SapB emission spectra at 331 nm, with excitation and emission monochromators bandwidth of 5 nm each. The fluorescence quenching data were analyzed using OriginLab software version 8.

HRP [1] = biological target: T2, HRP (Armoracia rusticana, UniProt P00433); experiment: A2E degradation by HRP/H2O2, absorbance kinetics at 340 nm; assay type: biochemical
T2 sequence (P00433 31-338): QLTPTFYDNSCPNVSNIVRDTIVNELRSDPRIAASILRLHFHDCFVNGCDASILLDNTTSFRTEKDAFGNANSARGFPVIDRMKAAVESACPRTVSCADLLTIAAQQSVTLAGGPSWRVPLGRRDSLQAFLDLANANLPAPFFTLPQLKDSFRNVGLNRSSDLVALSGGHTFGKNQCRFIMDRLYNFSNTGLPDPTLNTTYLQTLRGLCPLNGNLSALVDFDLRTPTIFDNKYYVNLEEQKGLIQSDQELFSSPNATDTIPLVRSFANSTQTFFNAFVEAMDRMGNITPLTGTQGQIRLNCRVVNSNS
Text: Horseradish peroxidase (HRP) is reported to cleave the bis-retinoid A2E. Thus, the ability of SapB to protect A2E from oxidative transformations by HRP was investigated.
In classic peroxidases, it is believed that reaction with hydrogen peroxide gives rise to two oxidizing equivalents (i.e. a porphyrin radical-cation and an Fe(IV)-oxo (ferryl) species) due to exposure of the prosthetic heme group to the bulk solution. […] Having established the presence of two different binding sites on SapB (one for A2E and one for CoQ10), the ability of SapB to protect A2E in the presence of CoQ10 was tested.
(§1) Conventional ultraviolet visible spectroscopy was performed on a Varian Cary 50 Bio spectrophotometer from Agilent Technologies. The stock solutions of various reagents were prepared as follow: HRP in DI water, A2E in DMSO, SapB in 50 mM phosphate buffer, pH 5.5, CoQ10 in THF (tetrahydrofurane) and 3% H2O2 solution diluted in DI water from an initial stock at 30%. The 340 nm kinetic experiments were monitored every 5 minutes for a total of 400 min following the sequential addition of all reagents as indicated in FIG. 4. The HRP solution of FIG. 5 was prepared in 20 mM phosphate buffer, 1% tween, pH 5.5, 25° C. All concentrations given in the figure caption are final concentrations following mixing of the reagents. The spectrophotometric data were further analyzed with OriginLab software version 8.

HRP [2] = biological target: T2, HRP; experiment: Formation of verdoheme (P-670) from HRP Compound III, absorbance at 670 nm; assay type: biochemical; conditions: 12 μM A2E, alone or pre-complexed with SapB; 10 μM HRP, 100 μM H2O2
Protocol: Here, and in light of the kinetic results of FIG. 4, we followed the absorbance change at 670 nm to test the hypothesis of whether A2E may be a suitable substrate for the HRP/H2O2 system.
The experiments were then repeated in the presence of A2E and SapB to examine their effect on P-670 formation.
as §1

[3] = biological target: T3, retinoid isomerohydrolase (RPE65 isomerohydrolase) (Homo sapiens, UniProt Q16518); conditions: non-palmitoylated, soluble, cytoplasmic RPE65; read-out: KD, direct binding to RPE65; cited from earlier work
T3 sequence (Q16518 1-533): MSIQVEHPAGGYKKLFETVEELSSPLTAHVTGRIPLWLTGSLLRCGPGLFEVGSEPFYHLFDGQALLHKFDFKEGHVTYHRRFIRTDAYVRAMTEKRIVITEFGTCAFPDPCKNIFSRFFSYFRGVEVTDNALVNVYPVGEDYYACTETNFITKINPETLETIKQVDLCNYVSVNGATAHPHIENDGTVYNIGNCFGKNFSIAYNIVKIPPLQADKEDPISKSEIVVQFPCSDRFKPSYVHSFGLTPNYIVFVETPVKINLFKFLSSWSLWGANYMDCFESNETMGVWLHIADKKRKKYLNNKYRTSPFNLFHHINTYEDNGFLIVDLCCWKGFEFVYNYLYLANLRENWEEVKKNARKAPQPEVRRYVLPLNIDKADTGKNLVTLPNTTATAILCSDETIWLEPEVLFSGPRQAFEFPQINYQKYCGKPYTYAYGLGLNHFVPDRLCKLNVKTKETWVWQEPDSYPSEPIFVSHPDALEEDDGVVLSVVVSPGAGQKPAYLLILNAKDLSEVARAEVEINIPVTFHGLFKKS

binding stoichiometry from double logarithmic plot (SapB): ~1 A2E per SapB dimer
LogKA of binding by SapB (SapB; 40 μM SapB, 50 mM phosphate buffer pH 5.5, average of three runs): 4.680
binding affinity (KA), A2E to SapB (SapB; double logarithmic plot, 50 mM phosphate buffer pH 5.5, 25° C.): ~4e+06 M⁻¹
Kd (SapB; read-out: KD, SapB binds A2E): 25 µM
binding stoichiometry, discontinuity of fluorescence quenching at 308 nm (SapB; titration of SapB with A2E): ~0.5 A2E/protein
absorbance of A2E at 340 nm after H2O2 added to A2E containing HRP (HRP [1]; free A2E): decrease in the absorbance value
amount of verdoheme (P-670) formation (HRP [2]): significant reduction
SMILES: CC(C=CC1=C(C)CCCC1(C)C)=CC=CC(C)=Cc1cc(C=CC=C(C)C=CC2=C(C)CCCC2(C)C)cc[n+]1CCO [A2E, N-retinylidene-N-retinylethanolamine]
absorbance change at 340 nm, A2E pre-complexed with SapB (HRP [1]; 2:1 SapB:A2E ratio, + HRP + H2O2): very similar to that of a control mixture of HRP and H2O2
absorbance, sequences (SapB+A2E)complex+CoQ10+HRP+H2O2 or (SapB+CoQ10)complex+A2E+HRP+H2O2 (HRP [1]; SapB and CoQ10 present): absorbance values similar to the sequence (SapB+A2E)complex+HRP+H2O2
damage to A2E, sequence (SapB+HRP)complex+A2E+H2O2 (HRP [1]; SapB pre-complexed with HRP): partial damage
Kd [3]: 0.25 µM
